According to ChEMBL document CHEMBL2396546, “Australian marine sponge alkaloids as a new class of glycine-gated chloride channel receptor modulator” (Bioorg Med Chem, 2013):

Tests used:
Assay type in all cases: cell-based
[1] = target: T1, Glycine receptor subunit alpha-3 (Homo sapiens, UniProt O75311); assay: Modulation of recombinant GlyR-alpha3 (unknown origin) expressed in HEK293 cells assessed as inhibition of glycine-induced current by automated planar patch-clamp automated electrophysiology assay
T1 sequence (O75311 whole entry): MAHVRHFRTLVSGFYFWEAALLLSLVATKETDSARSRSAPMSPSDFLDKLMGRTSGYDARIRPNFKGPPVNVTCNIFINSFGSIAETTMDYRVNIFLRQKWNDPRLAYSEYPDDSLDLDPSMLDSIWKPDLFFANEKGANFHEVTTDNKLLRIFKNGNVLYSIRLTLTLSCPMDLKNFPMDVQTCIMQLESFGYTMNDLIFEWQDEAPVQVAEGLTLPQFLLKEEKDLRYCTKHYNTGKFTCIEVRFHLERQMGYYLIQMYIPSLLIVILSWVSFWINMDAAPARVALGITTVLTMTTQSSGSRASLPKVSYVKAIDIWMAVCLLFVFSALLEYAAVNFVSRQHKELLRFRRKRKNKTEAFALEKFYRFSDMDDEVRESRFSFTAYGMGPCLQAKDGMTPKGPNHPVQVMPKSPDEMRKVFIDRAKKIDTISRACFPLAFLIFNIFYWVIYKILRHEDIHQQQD

[2] = target: T2, Glycine receptor subunit alpha-1 (Homo sapiens, UniProt P23415); assay: Modulation of recombinant GlyR-alpha1 (unknown origin) expressed in HEK293 cells assessed as inhibition of glycine-induced current by automated planar patch-clamp automated electrophysiology assay
T2 sequence (P23415 whole entry): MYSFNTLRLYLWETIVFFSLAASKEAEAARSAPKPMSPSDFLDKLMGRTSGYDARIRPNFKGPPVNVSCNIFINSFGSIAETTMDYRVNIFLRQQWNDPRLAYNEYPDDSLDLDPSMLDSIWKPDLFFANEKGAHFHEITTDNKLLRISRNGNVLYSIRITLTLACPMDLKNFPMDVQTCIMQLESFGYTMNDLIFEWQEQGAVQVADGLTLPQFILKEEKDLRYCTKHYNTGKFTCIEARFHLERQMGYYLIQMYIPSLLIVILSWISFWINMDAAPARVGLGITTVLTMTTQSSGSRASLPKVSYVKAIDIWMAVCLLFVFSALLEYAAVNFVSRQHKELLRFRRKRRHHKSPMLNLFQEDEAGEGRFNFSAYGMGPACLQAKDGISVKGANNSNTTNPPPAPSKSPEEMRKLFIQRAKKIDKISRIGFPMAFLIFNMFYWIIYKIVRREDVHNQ

[3] = target: T3, Glycine receptor subunit alpha-1 (Homo sapiens) (UniProt P23415); assay: Modulation of recombinant GlyR-alpha1 (unknown origin) expressed in HEK293 cells assessed as inhibition of glycine-induced current at 1 uM by automated planar patch-clamp automated electrophysiology assay
T3 sequence (whole entry): T2 sequence (P23415 whole entry)

| SMILES | IC50 [1] [µM] | IC50 [2] [µM] | inhibition [3] [%] |
| --- | --- | --- | --- |
| CN1C(=O)/C(=C\c2c[nH]c3ccccc23)N(C)C1=O | 67 | > 200 | – |
| CN1C(=O)NC(=O)/C1=C\c1c[nH]c2ccccc12 | 33.9 | 8.8 | – |
| CN1C(=N)N(C)[C@@]2(C1=O)c1[nH]c3ccccc3c1C[C@@]1(C(=O)N(C)C(=N)N1C)[C@@H]2c1c[nH]c2ccccc12 | > 300 | 25.9 | 126 |
